Eleven molecules from ChEMBL document CHEMBL5113368, “Meroterpenoids produced by fungi: Occurrence, structural diversity, biological activities, and their molecular targets” (Eur J Med Chem, 2021) can be followed below.

One data set relates to RAW264.7. The data set is described as follows: Antiinflammatory activity in mouse RAW264.7 cells assessed as decrease in LPS-induced IL-6 expression at 40 uM preincubated for 2 hrs followed by LPS-stimulation for 22 hrs by ELISA analysis relative to control. The following applies: time 24 hrs. The format is functional. For orientation: ELISA stands for enzyme-linked immunosorbent assay.

Data set [1] relates to MCF7. The data set is described as follows: Cytotoxicity against human MCF7 cells assessed as cell growth inhibition measured after 96 hrs by MTT assay. The note with it: MCF7, 96 h. The format is functional, cell-based. Background: Tetrazolium assays rely on reduction of a dye to a coloured formazan, in cell work by metabolically active cells.
A further data set has as its system THP-1. The data set is described as follows: Cytotoxicity against human THP-1 cells assessed as cell growth inhibition measured after 24 hrs by MTT assay. The format is functional, cell-based. The note with it: THP-1, 24 h.
The subject of the next data set is HL-60. The data set is described as follows: Cytotoxicity against human HL-60 cells assessed as cell growth inhibition measured after 24 hrs by MTT assay. The note with it: HL-60, 24 h. The class given is functional, cell-based.
A short description of data set [2]: Toxicity in brine shrimp assessed as induction of lethality. The following applies: artemia salina; read-out: LD50 (the source's name).
The subject of data set [3] is HeLa. The data set is described as follows: Cytotoxicity against human HeLa cells assessed as cell growth inhibition measured after 48 hrs by MTT assay. The format is functional, cell-based.
Another data set relates to SGC-7901. The data set is described as follows: Cytotoxicity against human SGC-7901 cells assessed as cell growth inhibition measured after 48 hrs by MTT assay. The class given is functional, cell-based. The following applies: SGC-7901, 48 h.
For data set [4], the system named is Human immunodeficiency virus 1. The data set is described as follows: Antiviral activity against HIV1 VSV-G pseudotyped virus infected in human SUP-T1 cells infected using supernatant of virus-producing 293T cells incubated for 48 hrs by firefly luciferase assay. The class given is functional, organism-based. The note with it: Human immunodeficiency virus 1, SUP-T1, 48 h.

The subject of another data set is Suid alphaherpesvirus 1. As to the kind of experiment: Antiviral activity against pseudorabies virus assessed as inhibition of viral growth. The class given is functional, organism-based.
Another data set has as its system A549. As to the kind of experiment: Antiproliferative activity against human A549 cells assessed as cell growth inhibition. The format is functional, cell-based.
The next data set has as its system HepG2. The data set is described as follows: Antiproliferative activity against human HepG2 cells assessed as cell growth inhibition. The format is functional, cell-based.
The next data set concerns SF-268. As to the kind of experiment: Antiproliferative activity against human SF-268 cells assessed as cell growth inhibition. The format is functional, cell-based.
Data set [5] relates to MCF7. As to the kind of experiment: Antiproliferative activity against human MCF7 cells assessed as cell growth inhibition. The class given is functional, cell-based.
In data set [6] the test system is HeLa. The data set is described as follows: Cytotoxicity against human HeLa cells assessed as cell growth inhibition measured after 48 hrs by CCK-8 assay. The class given is functional, cell-based.
The next data set has as its system SW480. The data set is described as follows: Cytotoxicity against human SW480 cells assessed as cell growth inhibition measured after 48 hrs by CCK-8 assay. The format is functional, cell-based. The note with it: SW480, 48 h.
The next data set concerns Salmonella typhi. The data set is described as follows: Antibacterial activity against Salmonella typhi assessed as reduction in microbial growth by modified broth dilution test. The format is functional, Salmonella enterica subsp. enterica serovar Typhi. The following applies: Salmonella enterica. For orientation: Broth dilution looks for growth in wells or tubes with falling amounts of substance.

In another data set the test system is Fusarium graminearum. The data set is described as follows: Antifungal activity Fusarium graminearum assessed as inhibition of fungal growth by microbroth dilution method. The class given is functional.
In the next data set the test system is BC1 cell line. The data set is described as follows: Cytotoxicity against human BC1 cells assessed as cell growth inhibition by colorimetric method. The class given is functional, cell-based.
Another data set deals with KB. The data set is described as follows: Cytotoxicity against human KB cells assessed as cell growth inhibition by colorimetric method. The class given is functional, cell-based.
A further data set relates to NCI-H187. As to the kind of experiment: Cytotoxicity against human NCI-H187 cells assessed as cell growth inhibition by colorimetric method. The class given is functional, cell-based.

In brackets after ≈: the same amount, converted by molar mass.

In general, inhibition refers to the change of the read-out against control, counted positive when it falls. What is called IC50 is the concentration needed to halve the response being measured. Usually EC50 stands for the midpoint of the concentration-response curve. For orientation: MIC means the lowest concentration found to suppress growth.

In the case of `Cc1oc(=O)c2c(c1C)O[C@@]1(C)[C@@H]([C@@H](C)[C@]3(O)CC(=O)C(C)(C)C(=O)[C@@]3(O)[C@H]1O)[C@H]2O`, in the data set on RAW264.7, the inhibition at 40 µM amounted to 69%.

For the molecule `CC(C)=CC[C@H]1C(=O)C2=C(CO[C@@H]2CCO)[C@@H](O)[C@H]1O`, the IC50 in the data set with MCF7 [1] was determined as 4.2 µM.

Turning to `COC(=O)CC1=C(C)[C@@H]2C[C@@]3(C)C(=O)O[C@H]4O[C@@H](C)C(=O)[C@](C(=O)OC)([C@H]43)[C@@]2(C)CC=C1C(C)(C)OC`, the IC50 with THP-1 was found to be 11.3 µM; in the data set with HL-60, 7.9 µM.

Turning to `C=C(C)[C@H]1O[C@H]2CC[C@@]3(C)[C@@](O)(CC[C@@]4(O)[C@@H]5OC(C)(C)[C@H]6C[C@@H]7C(=C)Cc8ccc9[nH]c(c5c9c8[C@@]76O)[C@]34C)[C@]23O[C@@H]3[C@H]1O`, in [2], the LC50 was found to be 4.6 µM.

Regarding `COc1ccc(O)c2c1[C@@H]1C=C(CC/C=C(/C)C2)C(=O)O1`, the results for the IC50 with HeLa [3] and in the data set with SGC-7901 were 23.5 µM and 14.5 µM, respectively.

`C/C=C/C=C/C1=C(CO)[C@@H](O)[C@@H](O)[C@@H](CC=C(C)C)C1=O` yielded an IC50 in data set [4] of 18 µM.

For the molecule `C[C@@H]1Cc2c3c(cc(O)c2C(=O)O1)O[C@]1(C)CCC[C@](C)([C@H]2C[C@@H](O)C2(C)C)[C@H]1C3`, the EC50 in the data set with Suid alphaherpesvirus 1 is 3.35 µM.

Consider `COC(=O)/C=C1\O[C@@]2(C)C/C=C/C(C)(C)C[C@@H]3Cc4c(C)cc(=O)c(O)cc4O[C@]3(C)[C@H](O)C[C@@H]2C[C@@]12OC(=O)C=C2C`, for which the IC50 in the data set on A549, in the data set on HepG2, with SF-268 and in the data set with MCF7 [5] was 0.5 µM throughout.

Regarding `C[C@]1(O)C=Cc2cc(C(=O)O)ccc2OC1`, the IC50 in the data set on HeLa [6] was determined as 38.6 µM; in the data set on SW480, 16.3 µM.

As to `Cc1oc(=O)c2c(c1C)O[C@]1(C)[C@H](O)[C@@H]3O[C@](O)(CC[C@H](C)[C@H]1C2)C(C)(C)C3=O`, the MIC with Salmonella typhi and in the data set with Fusarium graminearum was 12.5 µg/mL each time.

For the molecule `Cc1cc2c(c(=O)o1)C[C@H]1[C@]3(C)CC[C@H]4C(C)(C)[C@@H](O)CC[C@]4(C)[C@H]3CC[C@]1(C)O2`, the values for the half-inhibitory concentration (IC50) with BC1 cell line, with KB and in the data set with NCI-H187 were 8.7 µg/mL (≈ 21 µM), 2.9 µg/mL (≈ 6.99 µM) and 9.8 µg/mL (≈ 23.6 µM), respectively.
